Test [1] concerns the target RNA-editing ligase 1, mitochondrial (Trypanosoma brucei brucei, UniProt P86926). In words: TbREL1 ligase inhibitors, dose response, biochemical, fluorescence, Trypanosoma brucei (AID 1117295). In kind it is functional.
Test [2] concerns the target NAD-dependent protein deacylase sirtuin-5, mitochondrial (Homo sapiens, UniProt Q9NXA8). Kind of test: SIRT5 desuccinylase inhibitors, dose response, biochemical, fluorescence imaging, cherry-pick, set 5 (AID 720591).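 Note: desuccinylation of succinyl peptide AMC substrate read as fluorescence after trypsin release; potency of inhibitors that lower fluorescence and may act on trypsin instead.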
Test [3] can be described thus: A549 cell cytotoxicity, dose response, cytotoxicity control, plate reader, cherry-pick, antagonist series (AID 743412). In kind it is functional, cell-based.
Test [4] can be described thus: HepG2 cell cytotoxicity, dose response, cytotoxicity control, plate reader, cherry-pick, antagonist series (AID 743416). The class given is functional, cell-based.
Test [5] in a line: LGR2 antagonists, dose response, cell-based, HEK293, CRE-luciferase reporter, cherry pick, set 2 (AID 743343).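 Note: transfected cells were stimulated with diluted bursicon conditioned medium after compound addition.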 The class given is functional.
Test [6] in a line: MC4R antagonists, dose response, counter-screen for LGR2 antagonist project, cell-based, plate reader, cherry pick (AID 743444).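 Note: transfected HEK 293 cells stimulated with alpha-MSH peptide; potency of inhibitors of the alpha-MSH evoked signal.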 The class given is functional. In general terms: A counterscreen serves to expose hits that act by an unwanted route or on another target.
Test [7] is described as follows: HEK293 cell cytotoxicity, dose response, cytotoxicity control, plate reader, cherry-picked samples (AID 743446). In kind it is functional, cell-based.
Test [8] in a line: P. falciparum 3D7-ScDHODH growth inhibitors, dose response, SYBR Green, dry powder samples (AID 1159570).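 Note: parasite growth measured after 72 hours of compound exposure.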 In kind it is functional, cell-based.
A short description of test [9]: HepG2 cell cytotoxicity, dose response, cytotoxicity control, plate reader, dry powder samples (AID 1159569).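 Note: inhibitor potency with signal falling toward the positive control level.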 In kind it is functional, cell-based.
Test [10] can be described thus: P. falciparum Dd2 growth inhibitors, dose response, SYBR Green, cherry-picked samples (AID 1159567). The class given is functional, cell-based.
A short description of test [11]: P. falciparum Dd2 growth inhibitors, dose response, SYBR Green, dry powder samples (AID 1159566).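 Note: potency for growth inhibition with lower SYBR green DNA signal.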 The class given is functional, cell-based.
A short description of test [12]: P. falciparum ATP4 D1247Y mutant growth inhibitors, dose response, NITD609-resistant line, SYBR Green, dry powder (AID 1159571).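 Note: parasites synchronized at ring stage by sorbitol before testing.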 In kind it is functional, cell-based.
The nature of test [13]: HepG2 cell cytotoxicity, dose response, cytotoxicity control, cherry-picked samples (AID 1159577). The class given is functional, cell-based.
A short description of test [14]: inhibitors of firefly luciferase expression or activity, dose response, H4 neuroglioma cells, luminescence (AID 1990). In kind it is functional, cell-based.
Test [15] can be described thus: luciferase reporter signal reduction – luminescence, H4-C neuroglioblastoma cells, dose response (AID 2458).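 Note: H4 neuroglioblastoma cells stably carrying a luciferase reporter gene fusion.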 The class given is functional, cell-based.
The nature of another test: cells. In kind it is functional, cell-based.
A short description of test [16]: Luminescence Cell-Based Dose Response HTS to Identify Inhibitors of 5'UTR Stem-Loop Driven Prion Protein mRNA Translation in H4 Neuroglioblastoma Cells. [Related pubchem assays: 1827 (Project Summary), 1813 (Primary HTS)]. In kind it is functional.
The nature of test [17]: inhibitors of SNCA 5'UTR-driven reporter translation, confirmation, H4 neuroglioma cells, luminescence (AID 1988). In kind it is functional, cell-based.
The nature of test [18]: inhibitors of SNCA 5'UTR-driven translation, confirmation, luminescence, H4 neuroglioblastoma cells, dose confirmation (AID 2454).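 Note: H4 neuroglioblastoma cells carrying an alpha-synuclein 5'UTR luciferase reporter; potency for inhibition of the luciferase signal.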 The class given is functional, cell-based.
Test [19] is described as follows: HEK293 cell cytotoxicity, dose response, cytotoxicity control, dry powder samples (AID 720567). In kind it is functional, cell-based.
The subject of test [20] is BJ. In words: cytotoxicity toward BJ-TERT fibroblasts, dose response, cell-based, RAS-independent, luminescence (AID 1933). The settings on record: Homo sapiens. In kind it is functional.
The subject of test [21] is BJ. In words: cells. The settings on record: Homo sapiens. In kind it is functional, cell-based.
For test [22], the system named is BJ. Kind of test: cytotoxicity toward BJ-TERT-LT-ST fibroblasts, dose response, cell-based, RAS-independent, luminescence (AID 1935).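 Note: BJ fibroblasts immortalized with TERT plus LT and ST oncogenes.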 In kind it is functional. Particulars: Homo sapiens.
Test [23] is described as follows: cytotoxicity toward DRD oncogenic fibroblasts, dose response, cell-based, non-viral oncogenic, luminescence (AID 1934). Particulars: Homo sapiens. The class given is functional.
The target of test [24] is T1, RNA-binding protein pos-1 (Caenorhabditis elegans, UniProt G5EF15).
T1 sequence (G5EF15 whole entry): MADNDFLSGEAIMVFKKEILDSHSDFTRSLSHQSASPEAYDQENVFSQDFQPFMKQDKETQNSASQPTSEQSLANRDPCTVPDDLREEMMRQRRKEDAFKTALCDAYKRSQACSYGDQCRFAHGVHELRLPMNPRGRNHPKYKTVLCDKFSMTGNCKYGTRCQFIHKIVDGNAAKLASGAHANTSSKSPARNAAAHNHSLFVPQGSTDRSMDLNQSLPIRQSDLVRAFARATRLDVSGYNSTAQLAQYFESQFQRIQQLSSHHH
In words: inhibitors of POS-1/mex-3 RNA binding, dose response, biochemical, fluorescence polarization (AID 1964).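 Note: purified POS-1 fused to maltose binding protein made in E. coli; potency of compounds blocking POS-1 binding to fluorescent RNA.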 For orientation: In fluorescence polarisation assays a small probe gives low polarisation when free and higher when bound to something large.

Test [25] deals with T2, Zinc finger protein mex-5 (Caenorhabditis elegans, UniProt Q9XUB2).
T2 sequence (Q9XUB2 whole entry): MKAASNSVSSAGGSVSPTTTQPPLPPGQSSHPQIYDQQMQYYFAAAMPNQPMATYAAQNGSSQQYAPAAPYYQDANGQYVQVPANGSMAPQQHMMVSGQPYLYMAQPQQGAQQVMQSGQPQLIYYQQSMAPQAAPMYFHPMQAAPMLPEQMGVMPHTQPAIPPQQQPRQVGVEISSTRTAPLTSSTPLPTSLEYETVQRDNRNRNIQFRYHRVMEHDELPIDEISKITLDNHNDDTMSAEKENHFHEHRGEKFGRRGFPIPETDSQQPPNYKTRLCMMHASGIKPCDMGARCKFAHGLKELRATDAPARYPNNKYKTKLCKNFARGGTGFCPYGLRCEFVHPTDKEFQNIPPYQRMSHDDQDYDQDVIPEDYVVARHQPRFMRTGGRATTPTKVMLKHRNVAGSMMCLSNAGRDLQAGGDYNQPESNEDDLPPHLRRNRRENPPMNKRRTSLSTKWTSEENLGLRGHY
Kind of test: MEX-5/TCR-2 RNA interaction inhibitors, dose response, biochemical, C. elegans, fluorescence polarization (AID 1960).

Another test deals with Transthyretin (Homo sapiens, UniProt P02766). Kind of test: Luminescence-based cell-based high throughput dose response assay to identify activators of Transthyretin (TTR) transcription. The class given is functional.
In test [26] the target is T3, Histone-lysine N-methyltransferase NSD2 (Homo sapiens, UniProt O96028).
T3 sequence (O96028 whole entry): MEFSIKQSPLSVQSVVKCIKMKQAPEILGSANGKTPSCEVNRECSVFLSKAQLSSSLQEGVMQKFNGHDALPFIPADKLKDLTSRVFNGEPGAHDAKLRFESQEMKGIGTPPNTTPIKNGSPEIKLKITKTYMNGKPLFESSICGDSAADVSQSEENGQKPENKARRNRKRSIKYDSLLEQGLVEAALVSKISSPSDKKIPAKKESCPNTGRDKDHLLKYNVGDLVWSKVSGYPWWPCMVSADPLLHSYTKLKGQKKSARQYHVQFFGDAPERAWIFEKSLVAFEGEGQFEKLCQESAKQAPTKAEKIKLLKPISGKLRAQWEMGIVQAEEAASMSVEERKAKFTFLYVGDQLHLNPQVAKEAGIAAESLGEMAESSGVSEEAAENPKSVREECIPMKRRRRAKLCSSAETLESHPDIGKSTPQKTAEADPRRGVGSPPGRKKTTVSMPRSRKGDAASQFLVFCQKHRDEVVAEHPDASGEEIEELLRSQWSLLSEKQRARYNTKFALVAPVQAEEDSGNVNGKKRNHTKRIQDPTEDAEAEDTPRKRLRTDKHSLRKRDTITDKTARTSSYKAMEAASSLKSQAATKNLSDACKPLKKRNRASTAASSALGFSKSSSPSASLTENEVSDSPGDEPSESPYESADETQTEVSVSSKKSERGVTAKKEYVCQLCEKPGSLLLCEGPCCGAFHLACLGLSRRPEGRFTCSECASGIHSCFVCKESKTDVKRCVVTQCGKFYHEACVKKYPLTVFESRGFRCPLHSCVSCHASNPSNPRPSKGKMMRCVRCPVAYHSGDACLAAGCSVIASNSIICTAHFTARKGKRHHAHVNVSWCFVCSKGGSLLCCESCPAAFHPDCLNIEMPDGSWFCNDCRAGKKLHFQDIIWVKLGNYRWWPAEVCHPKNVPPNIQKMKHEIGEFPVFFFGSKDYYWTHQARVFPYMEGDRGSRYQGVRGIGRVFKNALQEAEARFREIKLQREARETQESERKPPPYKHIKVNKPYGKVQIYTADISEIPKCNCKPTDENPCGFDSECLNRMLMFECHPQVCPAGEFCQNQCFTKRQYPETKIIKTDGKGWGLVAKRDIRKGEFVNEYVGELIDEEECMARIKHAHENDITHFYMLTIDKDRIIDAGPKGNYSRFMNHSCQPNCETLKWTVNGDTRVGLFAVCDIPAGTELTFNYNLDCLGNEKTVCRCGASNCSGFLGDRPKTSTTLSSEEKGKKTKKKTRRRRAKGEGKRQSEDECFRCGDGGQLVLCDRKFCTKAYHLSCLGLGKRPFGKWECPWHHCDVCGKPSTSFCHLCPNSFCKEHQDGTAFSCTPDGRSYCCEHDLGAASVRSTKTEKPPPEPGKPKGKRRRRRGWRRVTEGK
In kind it is biochemical.

Molecules are shown by their SMILES. The source made the active and inactive calls. Some results are limits rather than exact numbers.

NAD-dependent protein deacylase sirtuin-5, mitochondrial, sequence (Q9NXA8 whole entry): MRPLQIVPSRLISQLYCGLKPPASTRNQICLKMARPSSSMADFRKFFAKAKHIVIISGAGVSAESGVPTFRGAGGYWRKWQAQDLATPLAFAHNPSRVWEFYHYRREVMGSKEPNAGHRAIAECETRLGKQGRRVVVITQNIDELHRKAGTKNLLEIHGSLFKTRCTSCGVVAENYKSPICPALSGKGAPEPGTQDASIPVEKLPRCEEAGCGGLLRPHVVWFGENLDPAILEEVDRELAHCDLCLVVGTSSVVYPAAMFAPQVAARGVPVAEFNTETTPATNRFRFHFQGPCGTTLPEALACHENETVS
RNA-editing ligase 1, mitochondrial, sequence (P86926 whole entry): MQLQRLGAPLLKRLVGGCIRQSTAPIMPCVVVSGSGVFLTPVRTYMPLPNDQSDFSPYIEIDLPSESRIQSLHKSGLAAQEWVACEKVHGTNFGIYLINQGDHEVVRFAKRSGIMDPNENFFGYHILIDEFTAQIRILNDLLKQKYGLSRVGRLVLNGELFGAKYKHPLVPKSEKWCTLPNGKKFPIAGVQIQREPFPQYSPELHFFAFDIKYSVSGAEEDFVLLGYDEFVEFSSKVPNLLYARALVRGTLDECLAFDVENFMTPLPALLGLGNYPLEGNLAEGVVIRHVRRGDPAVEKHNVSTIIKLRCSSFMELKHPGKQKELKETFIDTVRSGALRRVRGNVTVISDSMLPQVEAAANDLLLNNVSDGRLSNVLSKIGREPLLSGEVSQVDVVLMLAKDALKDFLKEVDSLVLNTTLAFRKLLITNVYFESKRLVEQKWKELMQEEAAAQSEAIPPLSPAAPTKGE

A word on the IC50: it is the point on the concentration scale where inhibition reaches its midpoint. For `COC(=O)C1=C(C)N(Cc2ccccc2C(F)(F)F)C(NCc2ccccc2)=NC1CCc1ccccc1` (centres undefined), in test [1], the IC50 was > 96.6 µM (inactive).
What is called AC50 is the midpoint of the concentration-response curve, whichever way the signal moves. Regarding `COc1ccc(CC(=O)Nc2ccc(S(=O)(=O)N3CCN(C)CC3)cc2)cc1`, in test [2], the AC50 is > 30 µM (inactive).
With `N#Cc1ccc(-c2ccc([C@@H]3[C@@H]4CN(C(=O)C5CCC5)C[C@H]3N4)cc2)cc1`, the AC50 was 7.74 µM (active) in test [3]; 22.7 µM (active) in test [4]; 5.97 µM (active) in test [5]; 7.86 µM (active) in test [6]; > 52 µM (inactive) in [7]; 1.19 µM (active) in test [8]. Moreover, the AC50 is > 100 µM (inactive) in [9], 0.825 µM (active) in test [10], 1.04 µM (active) in test [11] and 1.35 µM (active) in test [12].
As for `COc1ccc(S(=O)(=O)N2CCCCN3[C@@H](CO)[C@@H](c4ccc(C5=CCCCC5)cc4)[C@@H]3C2)cc1`, the AC50 in [10] is 0.972 µM (active); in [13], 10.2 µM (active).
The EC50 is the concentration that produces a half-maximal response. With `O=C(N/N=C/c1ccc(Cl)cc1)c1sccc1OCc1ccc(F)cc1`, the EC50 in test [14] was 10.2 µM (active); in test [15], 0.889 µM (active); in “cells”, 1.3 µM (active); in test [16], < 0.1 µM (active); in test [17], < 0.1 µM (active); in test [18], > 3.8 µM (not active). In addition, in test [19], the AC50 is 22.3 µM (active).
For the compound `COc1ccc(NC(=O)C(=O)c2cn(CC(=O)N3CCCC3)c3ccccc23)cc1`, the EC50 in [14] was 0.269 µM (inconclusive); in test [15], 0.323 µM (active); in the test with BJ [20], 2.77 µM (active); in the test “cells”, 0.515 µM (active); in test [17], < 0.1 µM (active); in the test on BJ [21], 1.54 µM (active). For the same compound, the results for the EC50 (in the test on BJ [22]; in [23]; in test [18]) were 2.34 µM (inconclusive), 2.25 µM (active) and 0.681 µM (active), respectively. Also, in test [19], the AC50 is 0.143 µM (active).
On to `COc1ccccc1S(=O)(=O)N(C)C[C@@H]1OCc2ccccc2-c2c(n(C)c3ccccc23)C(=O)N([C@H](C)CO)C[C@@H]1C`, for which the AC50 in [8] is 0.561 µM (active); in test [9] it was 89.2 µM (active); in test [10] it was 0.729 µM (active); in [11], 0.423 µM (active); in test [13], 36.7 µM (active); in test [12] it was 0.548 µM (active).
In the case of `CCCCN1C(=O)NC(=O)/C(=C(O)\C=C\c2ccc3c(c2)OCO3)C1=O`, the values for the concentration for a half-maximal effect (EC50) (in test [24]; in test [25]; at Transthyretin) were 11.5 µM (active), 9.12 µM (inconclusive) and > 167 µM (inactive), respectively.
With `NC(=O)[C@H]1CC2(CC(c3cccc(NC(=O)[C@H]4CCC(=O)N4)c3)=NO2)CN1C(=O)c1ccccc1` (some centres undefined), in [1], the IC50 was 19.7 µM (inactive).
Take `CCCC(=O)NC1=C(N2CC2)C(=O)C(NC(=O)CCC)=C(N2CC2)C1=O`: in [26], the concentration at half-maximal activity (AC50) was 6.65 µM (active). Further, the EC50 at Transthyretin is > 167 µM (inactive).
Regarding `O=S1(=O)N[C@@H](Cc2ccccc2)COc2cccc(N3CCCC3)c21`, the AC50 in [2] is > 30 µM (inactive).

For the origin of these results see ChEMBL document CHEMBL1201862, “PubChem BioAssay data set” (2004).
